Source: article PMC12005229, “Final results from the phase Ia/Ib study of the novel bromodomain and extra-terminal domain inhibitor, BI 894999, in patients with advanced solid tumors or diffuse large B-cell lymphoma” (ESMO Open, 2025)

System: patients with advanced solid tumors (SCLC, CRC, mCRPC, NUT carcinoma)
Assay: phase Ib expansion: DLTs, adverse events, exposure
[1] = phase Ib, NUT carcinoma total n = 42

Source text: The primary endpoint for the phase Ib expansion was the number of patients who experienced DLTs during the study treatment period.
For fatigue at baseline, there had to be an increase of two or more grades.

Compound: CNc1nc(-c2nc3ccc(N4CCN(C)CC4)cc3n2Cc2ccccc2)cn2c(C)nnc12 [BI 894999]
- Vomiting, treatment-related AE, any grade [1]: 0 n (%)
- Vomiting, treatment-related AE, grade ≥3 [1]: 0 n (%)
- Weight decrease, treatment-related AE, any grade [1]: 0 n (%)
- Weight decrease, treatment-related AE, grade ≥3 [1]: 0 n (%)
- ALT increase, treatment-related AE, any grade (phase Ib, SCLC n = 12): 1 (8.3) n (%)
- ALT increase, treatment-related AE, grade ≥3 (phase Ib, SCLC n = 12): 0 n (%)
- Anemia, treatment-related AE, any grade (phase Ib, SCLC n = 12): 0 n (%)
- Anemia, treatment-related AE, grade ≥3 (phase Ib, SCLC n = 12): 0 n (%)
- Decreased appetite, treatment-related AE, any grade (phase Ib, SCLC n = 12): 2 (16.7) n (%)
- Decreased appetite, treatment-related AE, grade ≥3 (phase Ib, SCLC n = 12): 1 (8.3) n (%)
- Decreased platelet count, treatment-related AE, any grade (phase Ib, SCLC n = 12): 1 (8.3) n (%)
- Decreased platelet count, treatment-related AE, grade ≥3 (phase Ib, SCLC n = 12): 0 n (%)
- Diarrhea, treatment-related AE, any grade (phase Ib, SCLC n = 12): 3 (25.0) n (%)
- Diarrhea, treatment-related AE, grade ≥3 (phase Ib, SCLC n = 12): 0 n (%)
- Dysgeusia, treatment-related AE, any grade (phase Ib, SCLC n = 12): 3 (25.0) n (%)
- Dysgeusia, treatment-related AE, grade ≥3 (phase Ib, SCLC n = 12): 0 n (%)
- Epistaxis, treatment-related AE, any grade (phase Ib, SCLC n = 12): 0 n (%)
- Epistaxis, treatment-related AE, grade ≥3 (phase Ib, SCLC n = 12): 0 n (%)
- Fatigue, treatment-related AE, any grade (phase Ib, SCLC n = 12): 4 (33.3) n (%)
- Fatigue, treatment-related AE, grade ≥3 (phase Ib, SCLC n = 12): 1 (8.3) n (%)
- Nausea, treatment-related AE, any grade (phase Ib, SCLC n = 12): 1 (8.3) n (%)
- Nausea, treatment-related AE, grade ≥3 (phase Ib, SCLC n = 12): 0 n (%)
- Number of patients with treatment-related AEs (phase Ib, SCLC n = 12): 11 (91.7) n (%)
- Thrombocytopenia, treatment-related AE, any grade (phase Ib, SCLC n = 12): 5 (41.7) n (%)
- Thrombocytopenia, treatment-related AE, grade ≥3 (phase Ib, SCLC n = 12): 3 (25.0) n (%)
- Vomiting, treatment-related AE, any grade (phase Ib, SCLC n = 12): 2 (16.7) n (%)
- Vomiting, treatment-related AE, grade ≥3 (phase Ib, SCLC n = 12): 0 n (%)
- Weight decrease, treatment-related AE, any grade (phase Ib, SCLC n = 12): 1 (8.3) n (%)
- Weight decrease, treatment-related AE, grade ≥3 (phase Ib, SCLC n = 12): 0 n (%)
- anemia, grade ≥3 treatment-related AE (phase Ib, all 79 patients): 15.2%
- anemia, treatment-related AE (phase Ib, all 79 patients): 22.8%
- decreased appetite, treatment-related AE (phase Ib, all 79 patients): 15.2%
- decreased platelet count, grade ≥3 treatment-related AE (phase Ib, all 79 patients): 11.4%
- decreased platelet count, treatment-related AE (phase Ib, all 79 patients): 25.3%
- diarrhea, treatment-related AE (phase Ib, all 79 patients): 29.1%
- dysgeusia, treatment-related AE (phase Ib, all 79 patients): 19.0%
- fatigue, grade ≥3 treatment-related AE (phase Ib, all 79 patients): 6.3%
- fatigue, treatment-related AE (phase Ib, all 79 patients): 27.8%
- nausea, treatment-related AE (phase Ib, all 79 patients): 12.7%
- thrombocytopenia, grade ≥3 treatment-related AE (phase Ib, all 79 patients): 20.3%
- thrombocytopenia, treatment-related AE (phase Ib, all 79 patients): 31.6%
- vomiting, treatment-related AE (phase Ib, all 79 patients): 12.7%
- ALT increase, treatment-related AE, any grade (phase Ib, mCRPC n = 11): 0 n (%)
- ALT increase, treatment-related AE, grade ≥3 (phase Ib, mCRPC n = 11): 0 n (%)
- Anemia, treatment-related AE, any grade (phase Ib, mCRPC n = 11): 4 (36.4) n (%)
- Anemia, treatment-related AE, grade ≥3 (phase Ib, mCRPC n = 11): 4 (36.4) n (%)
- Decreased appetite, treatment-related AE, any grade (phase Ib, mCRPC n = 11): 4 (36.4) n (%)
- Decreased appetite, treatment-related AE, grade ≥3 (phase Ib, mCRPC n = 11): 1 (9.1) n (%)
- Decreased platelet count, treatment-related AE, any grade (phase Ib, mCRPC n = 11): 3 (27.3) n (%)
- Decreased platelet count, treatment-related AE, grade ≥3 (phase Ib, mCRPC n = 11): 1 (9.1) n (%)
- Diarrhea, treatment-related AE, any grade (phase Ib, mCRPC n = 11): 6 (54.5) n (%)
- Diarrhea, treatment-related AE, grade ≥3 (phase Ib, mCRPC n = 11): 0 n (%)
- Dysgeusia, treatment-related AE, any grade (phase Ib, mCRPC n = 11): 4 (36.4) n (%)
- Dysgeusia, treatment-related AE, grade ≥3 (phase Ib, mCRPC n = 11): 0 n (%)
- Epistaxis, treatment-related AE, any grade (phase Ib, mCRPC n = 11): 2 (18.2) n (%)
- Epistaxis, treatment-related AE, grade ≥3 (phase Ib, mCRPC n = 11): 0 n (%)
- Fatigue, treatment-related AE, any grade (phase Ib, mCRPC n = 11): 4 (36.4) n (%)
- Fatigue, treatment-related AE, grade ≥3 (phase Ib, mCRPC n = 11): 0 n (%)
- Nausea, treatment-related AE, any grade (phase Ib, mCRPC n = 11): 4 (36.4) n (%)
- Nausea, treatment-related AE, grade ≥3 (phase Ib, mCRPC n = 11): 1 (9.1) n (%)
- Number of patients with treatment-related AEs (phase Ib, mCRPC n = 11): 11 (100.0) n (%)
- Thrombocytopenia, treatment-related AE, any grade (phase Ib, mCRPC n = 11): 5 (45.5) n (%)
- Thrombocytopenia, treatment-related AE, grade ≥3 (phase Ib, mCRPC n = 11): 4 (36.4) n (%)
- Vomiting, treatment-related AE, any grade (phase Ib, mCRPC n = 11): 5 (45.5) n (%)
- Vomiting, treatment-related AE, grade ≥3 (phase Ib, mCRPC n = 11): 0 n (%)
- Weight decrease, treatment-related AE, any grade (phase Ib, mCRPC n = 11): 2 (18.2) n (%)
- Weight decrease, treatment-related AE, grade ≥3 (phase Ib, mCRPC n = 11): 0 n (%)
- DLT grade 3 decreased appetite (phase Ib, on treatment): 2.5%
- DLT grade 3 fatigue (phase Ib, on treatment): 3.8%
- DLT grade 3 increased troponin T (phase Ib, on treatment): 2.5%
- DLT grade 4 decreased platelet count (phase Ib, on treatment): 5.1%
- DLT grade 4 thrombocytopenia (phase Ib, on treatment): 10.1%
- total patients with DLTs (phase Ib, schedule C 6.0/3.0 mg, on-treatment period): Phase Ib expansion: total patients with DLTs on BI 894999 (schedule C; 6.0/3.0 mg), n = 3
- AEs leading to death, each (phase Ib, COVID-19, pneumonia, sepsis, delirium, seizure, dyspnea, pulmonary hemorrhage, acute kidney injury): 1.3%
- other AEs leading to dose discontinuation, each (phase Ib, tumor hemorrhage, seizure, dyspnea, laryngeal inflammation, nausea, stomatitis, bladder dilation, urinary retention, increased ALT, increased AST, decreased platelet count, increased alkaline phosphatase): 1.3%
- AEs leading to death (solid tumors phase Ib n = 79): 7 (8.9) n (%)
- AEs leading to discontinuation of trial drug (solid tumors phase Ib n = 79): 11 (13.9) n (%)
- AEs leading to dose reduction (solid tumors phase Ib n = 79): 13 (16.5) n (%)
- Any AE (solid tumors phase Ib n = 79): 79 (100) n (%)
- DLT in on-treatment period (solid tumors phase Ib n = 79): 17 (21.5) n (%)
- Treatment-related AEs (solid tumors phase Ib n = 79): 66 (83.5) n (%)
- Treatment-related serious AEs (solid tumors phase Ib n = 79): 17 (21.5) n (%)
